# Test results: patent US20250288584A1, “COMBINATIONS COMPRISING POSITIVE ALLOSTERIC MODULATORS OR ORTHOSTERIC AGONISTS OF METABOTROPIC GLUTAMATERGIC RECEPTOR SUBTYPE 2 AND THEIR USE” (JANSSEN PHARMACEUTICA NV, priority 2014, published 2025)
# Values joined by “and” are separate entries in the source; they are usually repeats but may differ in a detail not shown here. Identical values can stand only once. Like-named read-outs stand apart in the source and are kept apart here.
# What was measured:
# Format in all cases: in vivo, mice
# [1] = tested on: 6 Hz (32 mA) psychomotor seizures; test: 6 Hz psychomotor seizure test, 32 mA (incl. TPE determination); conditions: for ED50: Mus musculus, read-out: ED50 (95% CI) 32 mA
# Outline: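 Mice dosed s.c. into a loose skin fold (one compound p.o.) at 0.01 mL/g body weight. Focal seizures induced by corneal stimulation (6 Hz, 0.2 msec rectangular pulse, 3 sec) at 32 mA; absence of stun, forelimb clonus, vibrissae twitching and Straub-tail scored as protection. TPE determined in this assay; ED50 from evenly spaced doses.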
# [2] = Minimal motor impairment (rotarod)
# [3] = Plasma and brain levels (pK/pD analysis); conditions: for concentration at 0.5 h / concentration at 1 h: mouse; for concentration at 0.5 h: subcutaneous; for concentration at 1 h: intraperitoneal
# Description: In various tests, animals were sacrificed following testing, and trunk blood and/or brain tissue (whole brains) was collected for quantification of drug levels. Immediately after testing, animals were decapitated and trunk blood was collected into a BD Vacutainer® tube containing K2EDTA and chilled on ice until centrifugation. Following centrifugation (13000-18000 rpm, 5-7 min), the plasma was removed and transferred to a labeled microcentrifuge tube and stored at −80° C. For brain tissue collection, brains were removed immediately following decapitation and flash frozen. The frozen sample was placed in a labeled centrifuge tube and stored at −80° C.
# In addition to recording the efficacy and toxicity data for these compounds alone or in combination, both plasma and brain samples were collected from each of the groups for pharmacokinetic/pharmacokinetic analysis.
# [4] = LEV 10 mg/kg combined with Co. No. 2 3 mg/kg, 6 Hz 44 mA
smiles,measurement,setting,value
Fc1ccc(N2CCN(Cc3ccn4c(CC5CC5)nnc4c3C(F)(F)F)CC2)c(F)c1 [Co. No. 1],# protected/# tested,"[1]; 0.5 mg/kg s.c., 0.5 h",1/8
same,# protected/# tested,"[1]; 2.5 mg/kg s.c., 0.25 h",1/8
same,# protected/# tested,"[1]; 2.5 mg/kg s.c., 0.5 h",5/8 and 7/16
same,# protected/# tested,"[1]; 5 mg/kg s.c., 0.25 h",8/12
same,# protected/# tested,"[1]; 5 mg/kg s.c., 0.5 h",8/12
same,# protected/# tested,"[1]; 10 mg/kg s.c., 0.25 h",4/4
same,# protected/# tested,"[1]; 10 mg/kg s.c., 0.5 h",4/4 and 7/8
same,# protected/# tested,"[1]; 10 mg/kg s.c., 1 h",3/4
same,# protected/# tested,"[1]; 10 mg/kg s.c., 2 h",0/4
same,# protected/# tested,"[1]; 10 mg/kg s.c., 4 h",0/4
same,# protected/# tested,"[1]; 20 mg/kg s.c., 0.5 h",8/8
same,ED50,"[1]; sc, at TPE",2.8 mg/kg
same,ED50 (95% CI) 32 mA,"[1]; s.c., at TPE",ED50 (95% CI): 2.8 mg/kg (1.3 to 4.3)
same,# rotarod motor impairment/# tested,"[2]; 0.5 mg/kg s.c., 0.5 h, 32 mA group",0/8
same,# rotarod motor impairment/# tested,"[2]; 2.5 mg/kg s.c., 0.25 h, 32 mA group",0/0
same,# rotarod motor impairment/# tested,"[2]; 2.5 mg/kg s.c., 0.5 h, 32 mA group",0/0 and 0/16
same,# rotarod motor impairment/# tested,"[2]; 2.5 mg/kg s.c., 0.5 h, 44 mA group",0/8
same,# rotarod motor impairment/# tested,"[2]; 5 mg/kg s.c., 0.25 h, 32 mA group",0/0
same,# rotarod motor impairment/# tested,"[2]; 5 mg/kg s.c., 0.5 h, 32 mA group",0/0 and 0/12
same,# rotarod motor impairment/# tested,"[2]; 10 mg/kg s.c., 0.25 h, 32 mA group",0/0
same,# rotarod motor impairment/# tested,"[2]; 10 mg/kg s.c., 0.5 h, 32 mA group",0/0 and 0/8
same,# rotarod motor impairment/# tested,"[2]; 10 mg/kg s.c., 0.5 h, 44 mA group",0/8
same,# rotarod motor impairment/# tested,"[2]; 10 mg/kg s.c., 1 h, 32 mA group",0/0
same,# rotarod motor impairment/# tested,"[2]; 10 mg/kg s.c., 2 h, 32 mA group",0/0
same,# rotarod motor impairment/# tested,"[2]; 10 mg/kg s.c., 4 h, 32 mA group",0/0
same,# rotarod motor impairment/# tested,"[2]; 15 mg/kg s.c., 0.5 h, 44 mA group",0/8
same,# rotarod motor impairment/# tested,"[2]; 20 mg/kg s.c., 0.5 h, 32 mA group",1/8
same,# rotarod motor impairment/# tested,"[2]; 20 mg/kg s.c., 0.5 h, 44 mA group",1/8
same,"Mean Plasma Level Co. No. 1, statistical outlier removed",[3]; Co. No. 1 2.5 mg/kg combined with LEV 10 mg/kg,(390) ng/ml
same,concentration at 0.5 h,"[3]; plasma, 2.5 mg/kg, Mean Plasma Levels (non-combination) Co. No. 1, Co. No. 1 2.5 mg/kg alone",438 ng/mL
same,concentration at 0.5 h,"[3]; plasma, Mean Plasma Level Co. No. 1, Co. No. 1 2.5 mg/kg combined with LEV 10 mg/kg",657 ng/mL
"CC[C@@H](C(N)=O)N1CCCC1=O [LEV, (S)-2-(2-oxopyrrolidin-1-yl) butanamide, reference compound]",# motortox/# tested,"[2]; LEV alone 10 mg/kg i.p., 1 h, 44 mA group",0/6 and 0/8
same,# rotarod motor impairment/# tested,[2]; LEV alone 200 mg/kg,0/8
same,# rotarod motor impairment/# tested,"[2]; LEV alone 200 mg/kg i.p., 44 mA group",0/8
same,# rotarod motor impairment/# tested,"[2]; LEV alone 350 mg/kg i.p., 44 mA group",0/8
same,# rotarod motor impairment/# tested,[2]; LEV alone 400 mg/kg,0/9
same,# rotarod motor impairment/# tested,"[2]; LEV alone 400 mg/kg i.p., 44 mA group",0/9
same,# rotarod motor impairment/# tested,[2]; LEV alone 800 mg/kg,0/12
same,# rotarod motor impairment/# tested,"[2]; LEV alone 800 mg/kg i.p., 44 mA group",0/12
same,"Plasma (ng/ml) LEV, individual mice","[3]; LEV 10 mg/kg combined with Co. No. 1 2.5 mg/kg, 6 Hz 44 mA",9780 ng/ml (2×) and 13700 ng/ml and 10100 ng/ml and 9350 ng/ml and 8580 ng/ml and 10900 ng/ml
same,"Brain (ng/ml) LEV, individual mice",[3]; [4],4760 ng/mL and 6380 ng/mL and 3960 ng/mL and 6290 ng/mL and 7990 ng/mL
same,"Plasma (ng/ml) LEV, individual mice",[3]; [4],3540 ng/mL and 3850 ng/mL and 7150 ng/mL and 3890 ng/mL and 6450 ng/mL and 8200 ng/mL
same,concentration at 1 h,"[3]; brain, 10 mg/kg, LEV 10 mg/kg alone (Co. No. 2 study), read-out: Mean Brain Level (non-combination) LEV",5770 ng/mL
same,concentration at 1 h,"[3]; brain, LEV 10 mg/kg combined with Co. No. 2 3 mg/kg, read-out: Mean Brain Level LEV",5880 ng/mL
same,concentration at 1 h,"[3]; plasma, 10 mg/kg, LEV 10 mg/kg alone (Co. No. 1 study), read-out: Mean Plasma Levels (non-combination) LEV",8250 ng/mL
same,concentration at 1 h,"[3]; plasma, 10 mg/kg, LEV 10 mg/kg alone (Co. No. 2 study), read-out: Mean Plasma Level (non-combination) LEV",8750 ng/mL
same,concentration at 1 h,"[3]; plasma, LEV 10 mg/kg combined with Co. No. 1 2.5 mg/kg, 6 Hz 44 mA, read-out: Plasma (ng/ml) LEV, individual mice",10300 ng/mL
same,concentration at 1 h,"[3]; plasma, LEV 10 mg/kg combined with Co. No. 1 2.5 mg/kg, read-out: Mean Plasma Level LEV",10300 ng/mL
same,concentration at 1 h,"[3]; plasma, LEV 10 mg/kg combined with Co. No. 2 3 mg/kg, read-out: Mean Plasma Level LEV",5510 ng/mL
"C[C@H](Oc1ccc(F)cc1F)c1ccn2c(CC3CC3)nnc2c1C(F)(F)F [Co. No. 6-b, 3-(Cyclopropylmethyl)-7-[(1S)-1-(2,4-difluorophenoxy)ethyl]-8-(trifluoromethyl)[1,2,4]triazolo[4,3-a]pyridine]",# protected/# tested,"[1]; 2.5 mg/kg p.o., 0.5 h",1/8
same,# protected/# tested,"[1]; 5 mg/kg p.o., 0.5 h",2/8
same,# protected/# tested,"[1]; 10 mg/kg p.o., 0.25 h",1/4
same,# protected/# tested,"[1]; 10 mg/kg p.o., 0.5 h",3/4 and 6/8
same,# protected/# tested,"[1]; 10 mg/kg p.o., 1 h",0/4
same,# protected/# tested,"[1]; 10 mg/kg p.o., 2 h",1/4
same,# protected/# tested,"[1]; 10 mg/kg p.o., 4 h",0/4
same,# protected/# tested,"[1]; 20 mg/kg p.o., 0.25 h",4/4
same,# protected/# tested,"[1]; 20 mg/kg p.o., 0.5 h",3/4 and 7/8
same,# protected/# tested,"[1]; 20 mg/kg p.o., 1 h",4/4
same,# protected/# tested,"[1]; 20 mg/kg p.o., 2 h",0/4
same,# protected/# tested,"[1]; 20 mg/kg p.o., 4 h",1/4
same,ED50,"[1]; po, 0.5 h, p.o., 0.5 h TPE",7.2 mg/kg
same,ED50 (95% CI) 32 mA,"[1]; p.o., 0.5 h TPE",ED50 (95% CI): 7.2 mg/kg (4.2 to 11.8)
same,# rotarod motor impairment/# tested,"[2]; 2.5 mg/kg p.o., 0.5 h, 32 mA group",0/8
same,# rotarod motor impairment/# tested,"[2]; 5 mg/kg p.o., 0.5 h, 32 mA group",0/8
same,# rotarod motor impairment/# tested,"[2]; 10 mg/kg p.o., 0.25 h, 32 mA group",0/4
same,# rotarod motor impairment/# tested,"[2]; 10 mg/kg p.o., 0.5 h, 32 mA group",0/4 and 0/8
same,# rotarod motor impairment/# tested,"[2]; 10 mg/kg p.o., 0.5 h, 44 mA group",0/8
same,# rotarod motor impairment/# tested,"[2]; 10 mg/kg p.o., 1 h, 32 mA group",0/4
same,# rotarod motor impairment/# tested,"[2]; 10 mg/kg p.o., 2 h, 32 mA group",0/4
same,# rotarod motor impairment/# tested,"[2]; 10 mg/kg p.o., 4 h, 32 mA group",0/4
same,# rotarod motor impairment/# tested,"[2]; 15 mg/kg p.o., 0.5 h, 44 mA group",0/8
same,# rotarod motor impairment/# tested,"[2]; 20 mg/kg p.o., 0.25 h, 32 mA group",0/4
same,# rotarod motor impairment/# tested,"[2]; 20 mg/kg p.o., 0.5 h, 32 mA group",0/4 and 0/8
same,# rotarod motor impairment/# tested,"[2]; 20 mg/kg p.o., 0.5 h, 44 mA group",0/8
same,# rotarod motor impairment/# tested,"[2]; 20 mg/kg p.o., 1 h, 32 mA group",0/4
same,# rotarod motor impairment/# tested,"[2]; 20 mg/kg p.o., 2 h, 32 mA group",0/4
same,# rotarod motor impairment/# tested,"[2]; 20 mg/kg p.o., 4 h, 32 mA group",0/4
same,# rotarod motor impairment/# tested,"[2]; 40 mg/kg p.o., 0.5 h, 44 mA group",0/8
